# “And” between values parts separate entries of the source, which are not always exact repeats. Equal values may be shown once. Read-outs that look alike come from different tables or passages of the source.
# How the values were obtained:
# Acinetobacter baumannii = assay: MIC, microbroth dilution; format: cell-based
# [1] = Mammalian cell cytotoxicity (CC50); format: cell-based, human; details: human, HeLa cells (ATCC CCL-2)
# Method: (§1) The half maximal cytotoxic concentration (CC50) of each compound against HeLa cells (ATCC CCL-2) was measured as previously described. […] The mean values for each biological replicate were averaged, and the CC50 was determined using a 4-parameter nonlinear curve fitting algorithm (GraphPad Prism). The average of the CC50s from two biological replicates was calculated and reported.
# HeLa cells = assay: Mammalian cell cytotoxicity (CC50); format: cell-based, human; details: listed as MBX-3535; for NORMALIZED DATA (Fraction DMSO Control): HeLa, replicates
# Method: as §1
# [2] = Serum protein binding, murine; format: in vitro ADME, mouse; details: mouse, serum, murine serum; read-out: murine serum binding (% bound)
# Method: Serum protein binding was determined using an equilibrium dialysis method as described. The amount of compound in each chamber (buffer and serum) was measured using methods for reverse-phase liquid chromatography/mass spectroscopy methods that were customized for each compound.
# [3] = Aqueous solubility (nephelometric); format: physicochemical; details: aqueous solution (buffer not named); single replicates
# trans-translation = assay: microbe, parasite or virus in culture; format: cell-based, Escherichia coli; details: for Luminescence readout (Envision plate reader) / Luminescence, background subtracted (DMSO control): per replicate
# Method: To verify that MBX-4132 retains activity as an inhibitor of trans-translation, we measured its dose-dependent activity against the non-stop luciferase reporter assay strain E. coli SB75 ΔtolC::kan (pluc-trpAt) essentially as described, with modifications. Briefly, serial 1.5-fold dilutions of MBX-4132 in DMSO were transferred to 96-well assay plates (Costar 3195), followed by the addition of 50 µl of an overnight culture of SB75 ΔtolC::kan (pluc-trpAt) that had been diluted to a final OD600 of 0.4 with LB media supplemented with 100 µg ampicillin/ml and 1 mM IPTG. […] The assay plates were incubated at room temperature for 2 h, and 50 µl of BrightGlo (Promega) bioluminescence reagent was added to each well. After 10 min incubation, bioluminescence intensity was measured using an Envision multi-label plate reader (Perkin Elmer). Each assay comprised three technical replicates, and the experiment was repeated three times. The fold induction for each MBX-4132 treated sample as compared to the DMSO-only sample was calculated for each technical replicate, and the average and standard deviation of the three technical was calculated. The IC50 was determined using a 4-parameter nonlinear curve fitting algorithm (GraphPad Prism).
# Pseudomonas aeruginosa = assay: MIC, microbroth dilution; format: cell-based
# [4] = Liver microsome stability, murine; format: in vitro ADME, mouse
# Procedure, shortened: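 Compounds incubated with liver microsomes plus NADPH over 30 min; parent remaining quantified by reverse-phase LC/MS. Half-life from linear regression over several time points.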
# Staphylococcus aureus = assay: MIC, microbroth dilution; format: cell-based
# Klebsiella pneumoniae = assay: MIC, microbroth dilution; format: cell-based
# [5] = HeLa cytotoxicity, one value per replicate
# [6] = [Compound] 0.0625 µM, listed as MBX-3535
# [7] = [Compound] 0.125 µM, listed as MBX-3535
# [8] = [Compound] 0.1875 µM, listed as MBX-3535
# [9] = [Compound] 0.25 µM, listed as MBX-3535
# [10] = [Compound] 0.375 µM, listed as MBX-3535
# [11] = [Compound] 0.5 µM, listed as MBX-3535
# [12] = [Compound] 0.75 µM, listed as MBX-3535
# [13] = [Compound] 1 µM, listed as MBX-3535
# [14] = [Compound] 1.5 µM, listed as MBX-3535
smiles,measurement,setting,value
"O=C(Nc1nnc(-c2ccc(F)cc2)o1)c1ccc(Cl)cc1 [KKL-35, 4-chloro-N-(5-(4-fluorophenyl)-1,3,4-oxadiazol-2-yl)benzamide]",MIC,"Acinetobacter baumannii; Acinetobacter baumannii ATCC 19606, replicates",≥32 µg/mL
same,MIC,"Acinetobacter baumannii; Acinetobacter baumannii, ATCC19606, Acinetobacter baumannii ATCC 19606, replicates, read-out: MIC",≥ 32 µg/mL
same,MIC,"Acinetobacter baumannii; Acinetobacter baumannii, ATCC19606, strain ATCC 19606, read-out: MIC",> 32 µg/mL
same,CC50,[1]; [5],30.5 µM
same,CC50,[1]; half-maximal cytotoxic concentration against HeLa cells,> 100 µM
same,CC50,HeLa cells; [5],30.6 µM and 26 µM and 22 µM and 29.1 µM and 34.1 µM
same,NORMALIZED DATA (Fraction DMSO Control),HeLa cells; [CMPD] 0.78125 µM,0.9983 Fraction DMSO Control and 0.9009 Fraction DMSO Control and 0.8841 Fraction DMSO Control and 1.049 Fraction DMSO Control and 0.992 Fraction DMSO Control and 0.9968 Fraction DMSO Control
same,NORMALIZED DATA (Fraction DMSO Control),HeLa cells; [CMPD] 1.5625 µM,0.9916 Fraction DMSO Control and 0.9029 Fraction DMSO Control and 0.888 Fraction DMSO Control and 1.05 Fraction DMSO Control and 0.9984 Fraction DMSO Control and 0.9932 Fraction DMSO Control
same,NORMALIZED DATA (Fraction DMSO Control),HeLa cells; [CMPD] 3.125 µM,0.9963 Fraction DMSO Control and 0.9267 Fraction DMSO Control and 0.8661 Fraction DMSO Control and 1.071 Fraction DMSO Control and 1.023 Fraction DMSO Control and 1.002 Fraction DMSO Control
same,NORMALIZED DATA (Fraction DMSO Control),HeLa cells; [CMPD] 6.25 µM,1.002 Fraction DMSO Control and 0.9334 Fraction DMSO Control and 0.856 Fraction DMSO Control and 1.09 Fraction DMSO Control and 1.008 Fraction DMSO Control and 1.022 Fraction DMSO Control
same,NORMALIZED DATA (Fraction DMSO Control),HeLa cells; [CMPD] 12.5 µM,0.9694 Fraction DMSO Control and 0.9248 Fraction DMSO Control and 0.8736 Fraction DMSO Control and 1.069 Fraction DMSO Control and 1.012 Fraction DMSO Control and 1.014 Fraction DMSO Control
same,NORMALIZED DATA (Fraction DMSO Control),HeLa cells; [CMPD] 25 µM,0.8994 Fraction DMSO Control and 0.8509 Fraction DMSO Control and 0.795 Fraction DMSO Control and 0.4926 Fraction DMSO Control and 0.6416 Fraction DMSO Control and 0.799 Fraction DMSO Control
same,NORMALIZED DATA (Fraction DMSO Control),HeLa cells; [CMPD] 50 µM,0.6292 Fraction DMSO Control and 0.6178 Fraction DMSO Control and 0.5987 Fraction DMSO Control and 0.3592 Fraction DMSO Control and 0.3855 Fraction DMSO Control and 0.3659 Fraction DMSO Control
same,NORMALIZED DATA (Fraction DMSO Control),HeLa cells; [CMPD] 100 µM,0.6116 Fraction DMSO Control and 0.6041 Fraction DMSO Control and 0.6139 Fraction DMSO Control and 0.191 Fraction DMSO Control and 0.1882 Fraction DMSO Control and 0.2089 Fraction DMSO Control
same,fraction unbound,[2],< 0.01
same,Solubility,[3],6.3 µM
same,IC50,"trans-translation; Eco Luc reporter, one value per replicate, listed as MBX-3535, read-out: IC50",0.138 µM and 0.151 µM
same,IC50,"trans-translation; Escherichia coli, E. coli non-stop luciferase reporter, Fig. 1B, read-out: in vivo luc-trpAt IC50",0.1 µM
same,IC50,"trans-translation; Escherichia coli, Eco Luc reporter, one value per replicate, read-out: IC50",0.156 µM
same,Luminescence readout (Envision plate reader),"trans-translation; [Compound] 0.046875 µM, listed as MBX-3535",793720 and 792160 and 789800
same,Luminescence readout (Envision plate reader),trans-translation; [6],778080 and 758560 and 769120
same,"Luminescence, background subtracted (DMSO control)",trans-translation; [6],-25080 and -11160 and -10320
same,Luminescence readout (Envision plate reader),"trans-translation; [Compound] 0.09375 µM, listed as MBX-3535",796160 and 783440 and 809640
same,Luminescence readout (Envision plate reader),trans-translation; [7],838680 and 824680 and 839280
same,"Luminescence, background subtracted (DMSO control)",trans-translation; [7],35520 and 54960 and 59840
same,Luminescence readout (Envision plate reader),trans-translation; [8],931120 and 911280 and 917880
same,"Luminescence, background subtracted (DMSO control)",trans-translation; [8],127960 and 141560 and 138440
same,Luminescence readout (Envision plate reader),trans-translation; [9],975560 and 925440 and 953800
same,"Luminescence, background subtracted (DMSO control)",trans-translation; [9],172400 and 155720 and 174360
same,Luminescence readout (Envision plate reader),trans-translation; [10],918760 and 868800 and 899520
same,"Luminescence, background subtracted (DMSO control)",trans-translation; [10],115600 and 99080 and 120080
same,Luminescence readout (Envision plate reader),trans-translation; [11],894760 and 832920 and 864960
same,"Luminescence, background subtracted (DMSO control)",trans-translation; [11],91600 and 63200 and 85520
same,Luminescence readout (Envision plate reader),trans-translation; [12],938080 and 885720 and 902440
same,"Luminescence, background subtracted (DMSO control)",trans-translation; [12],134920 and 116000 and 123000
same,Luminescence readout (Envision plate reader),trans-translation; [13],1090520 and 985400 and 1035440
same,"Luminescence, background subtracted (DMSO control)",trans-translation; [13],287360 and 215680 and 256000
same,Luminescence readout (Envision plate reader),trans-translation; [14],1101720 and 996520 and 1037480
same,"Luminescence, background subtracted (DMSO control)",trans-translation; [14],298560 and 226800 and 258040
same,MIC,"Pseudomonas aeruginosa; Pseudomonas aeruginosa ATCC 27853, replicates",≥32 µg/mL
same,MIC,"Pseudomonas aeruginosa; Pseudomonas aeruginosa, ATCC27853, Pseudomonas aeruginosa ATCC 27853, replicates, read-out: MIC",≥ 32 µg/mL
same,MIC,"Pseudomonas aeruginosa; Pseudomonas aeruginosa, ATCC27853, strain ATCC 27853, read-out: MIC",> 32 µg/mL
same,liver microsome stability (in words),[4],rapidly hydrolyzed
same,half-life,"[4]; mouse, murine liver microsomes, read-out: MMS / Microsomal Stability (t1/2), murine",< 5 min
same,Average MLMS t½,"[4]; murine liver microsomes, average of replicates",<5 min
same,MLMS t½,"[4]; murine liver microsomes, individual replicates",<5 min
same,MIC,"Staphylococcus aureus; Staphylococcus aureus ATCC 25923, replicates",1 µg/mL
same,MIC,"Staphylococcus aureus; Staphylococcus aureus ATCC 35556, replicates",1 µg/mL
same,MIC,"Staphylococcus aureus; Staphylococcus aureus BAA-1717, replicates",1 µg/mL
same,MIC,"Staphylococcus aureus; Staphylococcus aureus MRSA-1094, replicates",1 µg/mL
same,MIC,"Staphylococcus aureus; Staphylococcus aureus MRSA-1234547263, replicates",1 µg/mL
same,MIC,"Staphylococcus aureus; Staphylococcus aureus MSSA, replicates",1 µg/mL
same,MIC,"Staphylococcus aureus; Staphylococcus aureus N315, NRS-70, replicates",1 µg/mL
same,MIC,"Staphylococcus aureus; Staphylococcus aureus NRS-77, replicates",1 µg/mL
same,MIC,"Staphylococcus aureus; Staphylococcus aureus THC1516, replicates",1 µg/ml (4×) and 0.5 µg/ml
same,MIC,"Staphylococcus aureus; Staphylococcus aureus, ATCC25923, Staphylococcus aureus ATCC 25923, replicates, read-out: MIC",1 µg/mL
same,MIC,"Staphylococcus aureus; Staphylococcus aureus, ATCC25923, strain ATCC 25923, read-out: MIC",1 µg/mL
same,MIC,"Staphylococcus aureus; Staphylococcus aureus, ATCC35556, Staphylococcus aureus ATCC 35556, replicates, read-out: MIC",1 µg/mL
same,MIC,"Staphylococcus aureus; Staphylococcus aureus, ATCC35556, strain ATCC 35556, read-out: MIC",1 µg/mL
same,MIC,"Staphylococcus aureus; Staphylococcus aureus, BAA1717, Staphylococcus aureus BAA-1717, replicates, read-out: MIC",1 µg/mL
same,MIC,"Staphylococcus aureus; Staphylococcus aureus, BAA-1717 / MRSA, strain BAA-1717, MRSA, read-out: MIC",1 µg/mL
same,MIC,"Staphylococcus aureus; Staphylococcus aureus, MRSA / NRS 70, strain N315, NRS-70, MRSA, read-out: MIC",1 µg/mL
same,MIC,"Staphylococcus aureus; Staphylococcus aureus, MRSA, Staphylococcus aureus MRSA-1094, replicates, read-out: MIC",1 µg/mL
same,MIC,"Staphylococcus aureus; Staphylococcus aureus, MRSA, Staphylococcus aureus MRSA-1234547263, replicates, read-out: MIC",1 µg/mL
same,MIC,"Staphylococcus aureus; Staphylococcus aureus, MRSA, strain MRSA-1094, MRSA, read-out: MIC",1 µg/mL
same,MIC,"Staphylococcus aureus; Staphylococcus aureus, MRSA, strain MRSA-1234547263, MRSA, read-out: MIC",1 µg/mL
same,MIC,"Staphylococcus aureus; Staphylococcus aureus, MRSA, strain THC1516, MRSA, read-out: MIC",0.9 µg/mL
same,MIC,"Staphylococcus aureus; Staphylococcus aureus, MSSA, Staphylococcus aureus MSSA, replicates, read-out: MIC",1 µg/mL
same,MIC,"Staphylococcus aureus; Staphylococcus aureus, MSSA, strain MSSA, read-out: MIC",1 µg/mL
same,MIC,"Staphylococcus aureus; Staphylococcus aureus, NRS70, Staphylococcus aureus N315, NRS-70, replicates, read-out: MIC",1 µg/mL
same,MIC,"Staphylococcus aureus; Staphylococcus aureus, NRS77, Staphylococcus aureus NRS-77, replicates, read-out: MIC",1 µg/mL
same,MIC,"Staphylococcus aureus; Staphylococcus aureus, NRS77, strain NRS-77, read-out: MIC",1 µg/mL
same,MIC,"Staphylococcus aureus; Staphylococcus aureus, Staphylococcus aureus THC1516, replicates, read-out: MIC",1 µg/mL
same,MIC,"Klebsiella pneumoniae; Klebsiella pneumoniae ATCC 13883, replicates",≥32 µg/mL
same,MIC,"Klebsiella pneumoniae; Klebsiella pneumoniae, ATCC13883, strain ATCC 13883, read-out: MIC",≥ 32 µg/mL

# Reference: article PMC7979765, “trans-Translation inhibitors bind to a novel site on the ribosome and clear Neisseria gonorrhoeae in vivo” (Nature Communications, 2021)
